# Positions of bridges follow the written chain, without caps; N, C: chain ends. Residues, ends and D or L forms follow the SMILES beside them.
# Columns and labels:
# [1] = Human serum stability assay; type: in vitro ADME; conditions: for peptide remaining after 24 hours in human serum (in words): 0.9 mg/mL, buffered human serum, 37 deg. C; for remaining at 7 h, 0.9 mg/mL: male, human, human type-AB serum diluted 9:1 in phosphate-buffered saline
# Grb2-SH2 = Grb2-SH2 (Homo sapiens, UniProt P62993); type: binding; conditions: 5 nM pYVNV ligand, 0.91 μM Grb2-SH2
# Chain of Grb2-SH2 (P62993 60-152 limits assumed): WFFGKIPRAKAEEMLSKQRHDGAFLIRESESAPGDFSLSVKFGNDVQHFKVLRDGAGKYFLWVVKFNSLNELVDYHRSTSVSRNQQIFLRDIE
SMILES,peptide remaining after 24 hours in human serum (in words) [1],"remaining at 7 h, 0.9 mg/mL [1] [%]",inhibition of Grb2-SH2 in the competition assay (in words) (Grb2-SH2)
"CSCC[C@@H]1NC(=O)CNC(=O)[C@H](C(C)C)NC(=O)[C@H](CC(N)=O)NC(=O)[C@H](CCC(=O)O)NC(=O)[C@H](Cc2ccc(O)cc2)NC(=O)[C@H](CC(C)C)NC(=O)[C@H](CCC(=O)O)NC(=O)[C@@H](N)CSSC[C@@H](C(N)=O)NC(=O)[C@H](Cc2ccc(O)cc2)NC1=O [G1, reference compound] (H-CELYENVGMYC-NH2; disulfide 1-11; N-terminus and C-terminus assumed)",no detectable amounts of peptide remaining,< 30,–
CSCC[C@@H]1NC(=O)CNC(=O)[C@H](C(C)C)NC(=O)[C@H](CC(N)=O)NC(=O)[C@@H]2CCCN2C(=O)[C@H](Cc2ccc(O)cc2)NC(=O)[C@H](CC(C)C)NC(=O)[C@H](CCC(=O)O)NC(=O)[C@@H](N)CSSC[C@@H](C(N)=O)NC(=O)[C@H](Cc2ccc(O)cc2)NC1=O [G1-Pro] (H-CELYPNVGMYC-NH2; disulfide 1-11; N-terminus and C-terminus assumed),no detectable amounts of peptide remaining,< 30,little inhibitory activity
